Structures can show the parent of a compound that is named as a salt. Calls of active or inactive are those of the source. The rule behind the calls is not given here.
Assays:
Entamoeba histolytica [1] = assay: Antiamoebic activity against Entamoeba histolytica NIH 200 after 72 hrs by microdilution technique; format: functional, organism-based; details: NIH 200, 72 h
KB = assay: Cytotoxicity against human KB cells after 72 hrs; format: functional, cell-based
Plasmodium falciparum = assay: Antiplasmodial activity against multi drug-resistant Plasmodium falciparum K1 in erythrocytes by [3H]hypoxanthine uptake; format: functional, organism-based
Entamoeba histolytica [2] = assay: Antiamoebic activity against Entamoeba histolytica NIH 200 in guinea pig at 3 mg/kg, po; format: functional, organism-based; parameters: dose 3 mg/kg
Entamoeba histolytica [3] = assay: Antiamoebic activity against Entamoeba histolytica NIH 200 in guinea pig at 2 mg/kg, iv; format: functional, organism-based; parameters: dose 2 mg/kg

Structure (SMILES)	IC50 (Entamoeba histolytica [1]) [µM]	IC50 (KB) [µM]	IC50 (Plasmodium falciparum) [µM]	Activity (Entamoeba histolytica [2])	Activity (Entamoeba histolytica [3])
COc1ccc2c(c1OC)CN(C)CCc1cc3c(cc1C(=O)C2)OCO3 [ALLOCRYPTOPINE]	135	> 338	5.08	–	–
COc1ccc2cc3[n+](cc2c1OC)CCc1cc2c(cc1-3)OCO2 [BERBERINE CHLORIDE]	111	7.32	0.968	Active	Active
COc1ccc2c(c1OC)CN1CCc3cc4c(cc3[C@@H]1C2)OCO4 [CANADINE]	126	> 734	> 147	–	–
COc1ccc2c(c1OC)-c1c(OC)c(OC)cc3c1[C@H](C2)NCC3 [CATALPIFOLINE]	147	> 733	24.1	–	–
COc1cc2c(cc1O)-c1cc3ccc(OC)c(OC)c3c[n+]1CC2 [COLUMBAMINE CHLORIDE]	156	77.9	1.92	–	–
COc1cc2c3c(c1O)-c1c(ccc(OC)c1OC)C[C@@H]3N(C)CC2 [CORYDINE]	90.6	> 733	22.3	–	–
COc1cc2c(cc1O)CC[n+]1cc3cc(OC)c(OC)cc3cc1-2 [DEHYDRODISCRETINE CHLORIDE]	66.9	> 335	0.639	–	–
COc1cc2cc3c4c(c(OC)c5c(c4c2cc1OC)OCO5)CCN3C [DEHYDROOCOTEINE]	136	> 341	5.78	–	–
CC[C@H]1CN2CCc3cc(OC)c(OC)cc3[C@@H]2C[C@@H]1C[C@H]1NCCc2cc(OC)c(OC)cc21 [EMETINE HYDROCHLORIDE]	2.23	–	–	–	–
COc1ccc2c(c1O)-c1c(OC)c(OC)cc3c1[C@H](C2)N(C)CC3 [ISOCORYDINE]	> 147	> 733	37	–	–
COc1cc2c(cc1O)CC[n+]1cc3c(OC)c(OC)ccc3cc1-2 [JATRORRHIZINE CHLORIDE]	82.7	> 335	3.15	–	–
COc1ccc2c(c1O)-c1c(O)c(OC)cc3c1[C@H](C2)[N+](C)(C)CC3 [MAGNOFLORINE IODIDE]	111	> 533	> 107	–	–
COc1ccc2c(c1OC)[C@]13CCC(=O)[C@]4(O)O[C@H]2C[C@]14N(C)CC3 [METAPHANINE HYDROBROMIDE]	58.6	> 586	> 117	–	–
COc1cc2c3c(c1O)-c1c(ccc(OC)c1OC)C[C@@H]3NCC2 [NORCORYDINE]	76.4	> 733	3.08	–	–
COC1=C[C@]23CCN(C)[C@H](Cc4cc(OC)c(OC)cc42)C3=CC1=O [O-METHYLFLAVINANTINE]	73.4	> 734	207	–	–
COc1cc2c(cc1OC)-c1c3c(c(OC)c4c1[C@H](C2)N(C)CC4)OCO3 [OCOTEINE]	51.2	74.3	34.8	–	–
COc1cc([C@@H]2c3cc4c(cc3[C@H](O)[C@H]3COC(=O)[C@H]23)OCO4)cc(OC)c1OC [PODOFILOX]	–	0.008	–	–	–
COC1=C[C@]23CCN(C)[C@H](Cc4ccc(OC)c(O)c42)C3=CC1=O [SALUTARIDINE]	76.4	> 764	> 95	–	–
COC1=C[C@@H]2[C@@H]3Cc4ccc(OC)c(O)c4[C@]2(CCN3C)CC1=O [SINOMENINE]	56.2	> 759	> 152	–	–
COc1cc2c(cc1OC)-c1c3c(c(OC)c4ccnc(c14)C2=O)OCO3 [THALICMININE]	75.1	> 685	16.2	–	–
COc1c(O)ccc2cc3[n+](cc12)CCc1cc2c(cc1-3)OCO2 [THALIFENDINE]	116	> 699	7.91	–	–

From ChEMBL document CHEMBL1155642, “In vitro antiplasmodial, antiamoebic, and cytotoxic activities of some monomeric isoquinoline alkaloids” (J Nat Prod, 2000)
